Measurements taken from patent US9192688B2 (priority 2009, dated 2015).
Read-outs that look alike come from different tables or passages of the source.

Columns and labels:
[1] = system: test organisms (Bacillus cereus, Staphylococcus aureus, Salmonella typhimurium, Escherichia coli, Saccharomyces cerevisiae, bacteriophage); settings: for effect on viable count of test organisms: 5 kg meat
model prion protein = settings: T5 protocol; 5 g meat, 20% moisture, 100 ug model prion protein

OO [gaseous hydrogen peroxide, hydrogen peroxide]
effect on viable count (mesophilic organisms): elimination | effect on viable count of test organisms ([1]; trial T1: 30 ml 30% (v/v) H2O2 vaporised, 2.6 g/kg, 0.01 g/kg/s, 30 minutes contact, about 0.01 kPa): little or no effect | effect on viable count of test organisms ([1]; trial T2: 60 ml 30% (v/v) H2O2 vaporised, 0.01 g/kg/s, 30 minutes contact): little or no effect | effect on the organisms ([1]; trial T3: 90 ml 30% (v/v) H2O2, 7.9 g/kg meat, 0.01 g/kg/s, 30 minutes contact): significant effect | inactivation compared with T3 on increasing the contact rate ([1]; trial T5: 30 ml introduced rapidly over about 5 seconds (0.5 g/kg/s), then 60 ml at 0.01 g/kg/s): enhanced | inactivation of S. cerevisiae (S. cerevisiae): particularly striking effect | effect on viable count (S. typhimurium): elimination | prion content after treatment versus positive control (model prion protein): significantly destroyed | effect on viable count (E. coli): elimination | effect on viable count (S. aureus): elimination
